# Laboratory results from patent US12180197B2, “GLP-1R modulating compounds” (Gilead Sciences, Inc., priority 2021, dated 2024).
# How the values were obtained:
# GLP-1R [1] = target: T1, GLP-1R (Homo sapiens, UniProt P43220); assay: GLP-1R Activation - cAMP Assay 2; format: cell-based; conditions: cAMP increase in CHO cells stably expressing GLP-1R; pre-spotted agonists; assay buffer or 100% Human Plasma (not given); 30 minutes
# Procedure: GLP-1R Activation—cAMP Assay 2
# GLP-1R activation by small molecule agonists is quantified by measuring cAMP increase in CHO cells stably expressing GLP-1R (MultiSpan product #C1267-1a). 50 nL of agonists are pre-spotted in a 10 point dose response onto 384-well plate (Corning product #CL3826) using the Labcyte Echo System. The cells are harvested and plated in assay buffer (HBSS (Corning product #21-023-CV) with 20 mM Hepes (Gibco product #15630-080) and 0.1% BSA (Rockland Immunochemicals product #BSA-1000)) or 100% Human Plasma (Innovative Research product #50-643-396) at 1,000 cells/well, 10 μL/well, onto the pre-spotted plates. The cells are then incubated for 30 minutes at 37° C., 5% CO2. cAMP concentration increase is then detected using Cisbio's cAMP Gs Dynamic Kit (product #62AM4PEC) according to the manufacturer's protocol. The response is plotted against the log of the agonist concentration and fitted to a sigmoidal equation to determine the EC50.
# GLP-1R [2] = target: T1, GLP-1R; assay: GLP-1R Activation - cAMP Assay 1; format: cell-based; conditions: cAMP increase in CHO cells stably expressing GLP-1R; 30 minutes incubation; 10 point dose response
# Procedure: GLP-1R Activation—cAMP Assay 1
# GLP-1R activation by a compound of the present disclosure was quantified by measuring cAMP increase in CHO cells stably expressing GLP-1R (MultiSpan product #C1267-1a). The cells were harvested and plated in growth medium (DMEM/F-12 (Corning product #10-090-CV) supplemented with 10% FBS (HyClone product #SH30071-03), penicillin/streptomycin (Corning product #30-002CI) and 10 µg/ml puromycin (Gibco product #A11138-03)) at 1,000 cells/well in a 384-well plate (Greiner product #781080). The cells were then incubated overnight at 37° C., 5% CO2. The next day, the medium was removed and the cells were washed with DPBS (Corning product #21-031-CM) before adding the assay medium (HBSS, Corning product #21-023-CV) with 20 mM Hepes (Gibco product #15630-080) and 0.1% BSA (Rockland Immunochemicals product #BSA-1000)). Following the medium change, the cells were incubated for 1 hour at 37° C., 5% CO2. The tested GLP-1 compound was added to the cells in a 10 point dose response followed by a 30 minutes incubation at 37° C., 5% CO2. cAMP concentration increase was then detected using Cisbio's cAMP Gs Dynamic Kit (product #62AM4PEC) according to the manufacturer's protocol. The response was plotted against the log of the agonist concentration and fitted to a sigmoidal equation to determine the EC50.
# T1 sequence (P43220 24-463): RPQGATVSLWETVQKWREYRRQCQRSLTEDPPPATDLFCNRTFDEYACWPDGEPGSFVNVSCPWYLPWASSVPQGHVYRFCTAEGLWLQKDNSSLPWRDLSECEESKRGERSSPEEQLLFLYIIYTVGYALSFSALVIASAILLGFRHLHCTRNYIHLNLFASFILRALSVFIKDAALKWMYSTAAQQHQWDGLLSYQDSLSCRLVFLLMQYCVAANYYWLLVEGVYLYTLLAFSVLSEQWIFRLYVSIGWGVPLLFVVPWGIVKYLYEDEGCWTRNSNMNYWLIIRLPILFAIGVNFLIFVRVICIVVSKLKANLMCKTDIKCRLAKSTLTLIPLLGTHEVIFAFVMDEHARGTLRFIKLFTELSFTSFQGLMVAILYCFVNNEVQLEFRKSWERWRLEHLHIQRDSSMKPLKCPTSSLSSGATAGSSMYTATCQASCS
Structure (SMILES),EC50 (GLP-1R [1]),EC50 (GLP-1R [2])
"Cn1cc(-c2ccc(COc3cccc(C4CCN(Cc5nc6ccc(C(=O)O)cc6n5C[C@@H]5CCO5)CC4)n3)c(F)c2)cn1 [Example 15, 2-[[4-[6-[[2-fluoro-4-(1-methylpyrazol-4-yl)phenyl]methoxy]-2-pyridyl]-1-piperidyl]methyl]-3-[[(2S)-oxetan-2-yl]methyl]benzimidazole-5-carboxylic acid]",0.5 nM,
"COCCn1c(CN2CCC(c3cccc(OCc4ccc(-c5cnn(C(F)F)c5)cc4F)n3)CC2)nc2ccc(C(=O)O)cc21 [Example 16, 2-((4-(6-((4-(1-(difluoromethyl)-1H-pyrazol-4-yl)-2-fluorobenzyl)oxy)pyridin-2-yl)piperidin-1-yl)methyl)-1-(2-methoxyethyl)-1H-benzo[d]imidazole-6-carboxylic acid]",11.8 nM,
"COCCn1c(CN2CCC(c3cccc(OCc4ccc(-c5cn(C)nn5)cc4F)n3)CC2)nc2ccc(C(=O)O)cc21 [Example 17, 2-((4-(6-((2-fluoro-4-(1-methyl-1H-1,2,3-triazol-4-yl)benzyl)oxy)pyridin-2-yl)piperidin-1-yl)methyl)-1-(2-methoxyethyl)-1H-benzo[d]imidazole-6-carboxylic acid]",24.6 nM,
"Cn1cc(-c2ccc(COc3cccc(C4CCN(Cc5nc6ccc(C(=O)O)cc6n5C[C@@H]5CCO5)CC4)n3)c(F)c2)nn1 [Example 18, (S)-2-((4-(6-((2-fluoro-4-(1-methyl-1H-1,2,3-triazol-4-yl)benzyl)oxy)pyridin-2-yl)piperidin-1-yl)methyl)-1-(oxetan-2-ylmethyl)-1H-benzo[d]imidazole-6-carboxylic acid]",1.5 nM,
"O=C(O)c1ccc2nc(CN3CCC(c4cccc(OCc5ccc(-c6cnn(C(F)F)c6)cc5F)n4)CC3)n(C[C@@H]3CCO3)c2c1 [Example 19, (S)-2-((4-(6-((4-(1-(difluoromethyl)-1H-pyrazol-4-yl)-2-fluorobenzyl)oxy)pyridin-2-yl)piperidin-1-yl)methyl)-1-(oxetan-2-ylmethyl)-1H-benzo[d]imidazole-6-carboxylic acid]",0.2 nM,
"O=C(O)c1ccc2nc(CN3CCC(c4cccc(OCc5ccc(-c6cnc(C7CC7)o6)cc5F)n4)CC3)n(C[C@@H]3CCO3)c2c1 [Example 20, (S)-2-((4-(6-((4-(2-cyclopropyloxazol-5-yl)-2-fluorobenzyl)oxy)pyridin-2-yl)piperidin-1-yl)methyl)-1-(oxetan-2-ylmethyl)-1H-benzo[d]imidazole-6-carboxylic acid]",1.9 nM,
"COCCn1c(CN2CCC(c3cccc(OCc4ccc(-c5cnn(C)c5)cc4F)n3)CC2)nc2ccc(C(=O)O)cc21 [Example 21, 2-((4-(6-((2-fluoro-4-(1-methyl-1H-pyrazol-4-yl)benzyl)oxy)pyridin-2-yl)piperidin-1-yl)methyl)-1-(2-methoxyethyl)-1H-benzo[d]imidazole-6-carboxylic acid]",7.2 nM,
"Cn1cc(C#Cc2ccc(COc3cccc(C4CCN(Cc5nc6ccc(C(=O)O)cc6n5C[C@@H]5CCO5)CC4)n3)c(F)c2)cn1 [Example 22, 2-[[4-[6-[[2-fluoro-4-[2-(1-methylpyrazol-4-yl)ethynyl]phenyl]methoxy]-2-pyridyl]-1-piperidyl]methyl]-3-[[(2S)-oxetan-2-yl]methyl]benzimidazole-5-carboxylic acid]",3.1 nM,
"O=C(O)c1ccc2nc(CN3CCC(c4cccc(OCc5ccc(-c6cn(C7CC7)nn6)cc5F)n4)CC3)n(C[C@@H]3CCO3)c2c1 [Example 23, (S)-2-((4-(6-((4-(1-cyclopropyl-1H-1,2,3-triazol-4-yl)-2-fluorobenzyl)oxy)pyridin-2-yl)piperidin-1-yl)methyl)-1-(oxetan-2-ylmethyl)-1H-benzo[d]imidazole-6-carboxylic acid]",1.7 nM,
"O=C(O)c1ccc2nc(CN3CCC(c4cccc(OCc5ccc(-c6cn(C7COC7)nn6)cc5F)n4)CC3)n(C[C@@H]3CCO3)c2c1 [Example 24, (S)-2-((4-(6-((2-fluoro-4-(1-(oxetan-3-yl)-1H-1,2,3-triazol-4-yl)benzyl)oxy)pyridin-2-yl)piperidin-1-yl)methyl)-1-(oxetan-2-ylmethyl)-1H-benzo[d]imidazole-6-carboxylic acid]",1.7 nM,
"COCCn1c(CN2CCC(c3cccc(OCc4c(F)cc(C(N)=O)cc4F)n3)CC2)nc2ccc(C(=O)O)cc21 [Example 37, 2-((4-(6-((4-carbamoyl-2,6-difluorobenzyl)oxy)pyridin-2-yl)piperidin-1-yl)methyl)-1-(2-methoxyethyl)-1H-benzo[d]imidazole-6-carboxylic acid]",,2200 nM
"COCCn1c(CN2CCC(c3cccc(OCc4ccc(C5CC5)cc4)n3)CC2)nc2ccc(C(=O)O)cc21 [Example 38, 2-((4-(6-((4-cyclopropylbenzyl)oxy)pyridin-2-yl)piperidin-1-yl)methyl)-1-(2-methoxyethyl)-1H-benzo[d]imidazole-6-carboxylic acid]",,58.3 nM
"COCCn1c(CN2CCC(c3cccc(OCc4cc5cn[nH]c5cc4F)n3)CC2)nc2ccc(C(=O)O)cc21 [Example 39, 2-((4-(6-((6-fluoro-1H-indazol-5-yl)methoxy)pyridin-2-yl)piperidin-1-yl)methyl)-1-(2-methoxyethyl)-1H-benzo[d]imidazole-6-carboxylic acid]",,> 10000 nM
"O=C(O)c1ccc2nc(CN3CCC(c4cccc(OCc5ccc(-n6cc(C7CC7)nn6)cc5F)n4)CC3)n(C[C@@H]3CCO3)c2c1 [Example 40, 2-[[4-[6-[[4-(4-cyclopropyltriazol-1-yl)-2-fluoro-phenyl]methoxy]-2-pyridyl]-1-piperidyl]methyl]-3-[[(2S)-oxetan-2-yl]methyl]benzimidazole-5-carboxylic acid]",1.3 nM,
"O=C(O)c1ccc2nc(CN3CCC(c4cccc(OCc5ccc(-n6ccnn6)cc5F)n4)CC3)n(C[C@@H]3CCO3)c2c1 [Example 41, (S)-2-((4-(6-((2-fluoro-4-(1H-1,2,3-triazol-1-yl)benzyl)oxy)pyridin-2-yl)piperidin-1-yl)methyl)-1-(oxetan-2-ylmethyl)-1H-benzo[d]imidazole-6-carboxylic acid]",0.3 nM,
"COCCn1c(CN2CCC(c3cccc(OCc4ccc(C#N)c5cccnc45)n3)CC2)nc2ccc(C(=O)O)cc21 [Example 42, 2-((4-(6-((5-cyanoquinolin-8-yl)methoxy)pyridin-2-yl)piperidin-1-yl)methyl)-1-(2-methoxyethyl)-1H-benzo[d]imidazole-6-carboxylic acid]",,6.6 nM
"COCCn1c(CN2CCC(c3cccc(OCc4ccc5c(c4)COC5=O)n3)CC2)nc2ccc(C(=O)O)cc21 [Example 43, 1-(2-Methoxyethyl)-2-((4-(6-((1-oxo-1,3-dihydroisobenzofuran-5-yl)methoxy)pyridin-2-yl)piperidin-1-yl)methyl)-1H-benzo[d]imidazole-6-carboxylic acid]",,345 nM
"COCCn1c(CN2CCC(c3cccc(OCc4ccc5c(c4)C(=O)OC5)n3)CC2)nc2ccc(C(=O)O)cc21 [Example 44, 1-(2-methoxyethyl)-2-((4-(6-((3-oxo-1,3-dihydroisobenzofuran-5-yl)methoxy)pyridin-2-yl)piperidin-1-yl)methyl)-1H-benzo[d]imidazole-6-carboxylic acid]",,109 nM
